Measurements from patent US20180311334A1, “Compositions and Methods for Inducing an Immune Response” (Yale University, priority 2017, published 2018).

How the values were obtained:
WT S. aureus Newman = experiment: S. aureus growth in presence of copper (optical density); type: cell-based, Staphylococcus aureus; conditions: 2 mM copper, 4.25 hours, absorbance at 600 nm
Method: WT S. aureus Newman was grown in the presence and absence of 2 mM copper for 4.25 hours. Growth was monitored by optical density: absorbance measurements were taken every 15 minutes at 600 nm.

[1] = test system: murine bone marrow-derived macrophages; experiment: qPCR of cytokine mRNA in bone marrow-derived macrophages (BMM); type: cell-based, C57BL/6 mice; conditions: 1 μM soluble xyliquimod, 12 hours, WT and TLR7KO BMM
Method: Finally, before leaving the sortase-based xyliquimod incorporation approach behind altogether, it was tested it in a more physiologically relevant experimental system. To this end, stimulations in murine bone marrow-derived macrophages (BMM) were performed and the resulting immune responses were assessed by quantifying expression of IL-1β, a pro-inflammatory cytokine transcriptionally regulated by NFκB. Besides more accurately recapitulating the physiological response to an immune stimulus than the RAW-NFκB-sLuc assay, the primary macrophage model offered two additional advantages over reporter cell lines. First, the dynamic range of qPCR analysis is far greater than that of the luciferase assay, so smaller differences in immune activation can be detected more readily. […]
After stimulation of BMDCs and BMMs, the supernatant was removed, cells were lysed, and RNA was isolated using the RNeasy kit (Qiagen, Germantown, Md.) according to manufacturer's instructions. cDNA was reverse-transcribed with an oligo(dT) primer using Moloney murine leukemia virus reverse transcriptase (MMLV RT). cDNA was analyzed in triplicate by qPCR amplification using SYBR Green Supermix (Life Technologies, Carlsbad, Calif.) on a Bio-Rad CFX96 Real-Time PCR Detection System (Bio-Rad, Hercules, Calif.). […]

copper
S. aureus growth (WT S. aureus Newman): completely inhibit S. aureus growth

CCCCc1nc2c(N)nc3ccccc3c2n1Cc1ccc(CN)cc1 [xyliquimod, 1-(4-(aminomethyl)benzyl)-2-butyl-1Himidazo[4,5-c]quinolin-4-amine]
IL-1β mRNA expression [1]: active in WT and not TLR7KO macrophages
